Reference: patent US20170334899A1, “AMINO-SUBSTITUTED ISOTHIAZOLES” (Bayer Pharma Aktiengesellschaft, priority 2014, published 2017)
Several values for one entry are separate records, joined by “and”; a condition that tells them apart may be missing. Identical values can stand only once. Counter-ions that a name gives are not always drawn. Like-named read-outs stand apart in the source and are kept apart here.

Key:
[1] = target: T1, catalytic domain of human Bub1 (amino acids 704-1085) (Homo sapiens, UniProt O43683); test: Bub1 kinase assay (TR-FRET); type: biochemical; conditions: 10 μM ATP, avg, read-out: Bub1 avg (IC50 [mol/l])
T1 construct: catalytic domain of human Bub1 (amino acids 704-1085); His6 (N); made in house; host or cells: insect cells (Hi5)
T1 sequence (O43683 704-1085): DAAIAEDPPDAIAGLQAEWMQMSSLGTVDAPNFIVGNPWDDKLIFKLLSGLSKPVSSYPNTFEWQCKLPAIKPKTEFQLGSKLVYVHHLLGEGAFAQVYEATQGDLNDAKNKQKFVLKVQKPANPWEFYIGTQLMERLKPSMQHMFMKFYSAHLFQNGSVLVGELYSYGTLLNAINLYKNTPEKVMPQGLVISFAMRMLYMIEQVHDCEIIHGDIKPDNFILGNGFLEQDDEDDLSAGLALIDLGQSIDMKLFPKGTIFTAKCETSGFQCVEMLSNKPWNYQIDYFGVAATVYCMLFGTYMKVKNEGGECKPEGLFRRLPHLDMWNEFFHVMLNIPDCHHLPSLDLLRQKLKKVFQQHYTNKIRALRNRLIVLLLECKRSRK
In short: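 Readout is the 665/620 nm TR-FRET ratio from anti-phosphoserine antibody, Eu-labelled anti-mouse IgG and streptavidin-XL665, scaled between no-enzyme and uninhibited controls. Reaction: 1 μM biotinylated peptide, 10 μM ATP, 60 min, 22 °C, after 15 min compound preincubation with His6-Bub1 (704-1085, insect-expressed, ~200 ng/ml).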

[2] = tested on: human cervical tumor cell line HeLa (ATCC CCL-2); test: SAC-Formation - Paclitaxel-Induced Assay; type: cell-based; conditions: 24 h, HeLa cells, paclitaxel 0.05 μM, test range 0.005 μM-20 μM, read-out: IC50 [mol/l] SAC-Formation - Paclitaxel-Induced Assay
In short: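 HeLa cells incubated overnight at 37° C, then given paclitaxel (0.05 μM final) plus test compound (0.005–20 μM, 0.5% DMSO) together for 24 h at 37° C. Fixed cells stained for phospho-histone H3 Ser10 (mitotic cells) and Hoechst 33342 (cell count); imaging-derived mitotic index fitted by four-parameter Hill equation.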

Row | SMILES | IC50 [1] | IC50 ([2]; Homo sapiens, HeLa) [µM] | IC50 [2] [µM]
1 | Cc1nsc(Nc2cnc3ccccc3n2)c1C(=O)Nc1ccc(C(=O)NC2CN(C(=O)OC(C)(C)C)CC(F)(F)C2)cc1 (stereo not shown) [Example 158, tert-butyl 3,3-difluoro-5-{[4-({[3-methyl-5-(quinoxalin-2-ylamino)-1,2-thiazol-4-yl]carbonyl}amino)benzoyl]amino} piperidine-1-carboxylate] | > 20 µM | 2.8 | 
2 | Cc1nsc(Nc2cnc3ccccc3n2)c1C(=O)Nc1ccc(C(=O)N2CCCN(CC(F)(F)F)CC2)cc1 [Example 159] | > 20 µM | 10 | 
3 | Cc1nsc(Nc2cnc(C(F)(F)F)cn2)c1C(=O)Nc1ccc(OC2CCN(C(C)C)CC2)nc1 [Example 160, N-{6-[(1-isopropylpiperidin-4-yl)oxy]pyridin-3-yl}-3-methyl-5-{[5-(trifluoromethyl)pyrazin-2-yl]amino}-1,2-thiazole-4-carboxamide] | > 20 µM | 3.6 | 
4 | Cc1nsc(Nc2cnc(C(F)(F)F)cn2)c1C(=O)Nc1ccc(OC2CCN(CCF)CC2)c(F)c1 [Example 162, N-(3-fluoro-4-{[1-(2-fluoroethyl)piperidin-4-yl]oxy}phenyl)-3-methyl-5-{[5-(trifluoromethyl)pyrazin-2-yl]amino}-1,2-thiazole-4-carboxamide] | > 20 µM | 0.12 | 
5 | Cc1nsc(Nc2cnc(C(F)(F)F)cn2)c1C(=O)Nc1ccc(OC2CCN(CC(F)(F)F)CC2)c(F)c1 [Example 163, N-(3-fluoro-4-{[1-(2,2,2-trifluoroethyl)piperidin-4-yl]oxy}phenyl)-3-methyl-5-{[5-(trifluoromethyl)pyrazin-2-yl]amino}-1,2-thiazole-4-carboxamide] | > 20 µM | 0.039 | 
6 | Cc1nsc(Nc2cnc(C(F)(F)F)cn2)c1C(=O)Nc1ccc(OC2CCN(CC(F)F)CC2)c(F)c1 [Example 164, N-(4-{[1-(2,2-difluoroethyl)piperidin-4-yl]oxy}-3-fluorophenyl)-3-methyl-5-{[5-(trifluoromethyl)pyrazin-2-yl]amino}-1,2-thiazole-4-carboxamide] | > 20 µM | 0.14 | 
7 | Cc1nsc(Nc2cnc(C(F)(F)F)cn2)c1C(=O)Nc1ccc(C(=O)NC2CCN(CC(F)(F)F)CC2)cc1 [Example 165, 3-methyl-N-(4-{[1-(2,2,2-trifluoroethyl)piperidin-4-yl]carbamoyl}phenyl)-5-{[5-(trifluoromethyl)pyrazin-2-yl]amino}-1,2-thiazole-4-carboxamide] | > 20 µM | 0.59 | 
8 | Cc1nsc(Nc2cncc(C(F)(F)F)n2)c1C(=O)Nc1ccc(OCC2CCCN(C(=O)OC(C)(C)C)C2)nc1 (stereo not shown) [Example 166, tert-butyl 3-{[(5-{[(3-methyl-5-{[6-(trifluoromethyl)pyrazin-2-yl]amino}-1,2-thiazol-4-yl)carbonyl]amino}pyridin-2-yl)oxy]methyl}piperidine-1-carboxylate] | > 20 µM | 0.17 | 
9 | Cc1nsc(Nc2cncc(C(F)(F)F)n2)c1C(=O)Nc1ccc(C(=O)NC2CCN(CC(F)(F)F)CC2)cc1 [Example 167, 3-methyl-N-(4-{[1-(2,2,2-trifluoroethyl)piperidin-4-yl]carbamoyl}phenyl)-5-{[6-(trifluoromethyl)pyrazin-2-yl]amino}-1,2-thiazole-4-carboxamide] | > 20 µM | 0.34 | 
10 | Cc1nsc(Nc2cncc(C(F)(F)F)n2)c1C(=O)Nc1ccc(F)c(OC2CCN(C(=O)OC(C)(C)C)CC2)c1 [Example 168, tert-butyl 4-(2-fluoro-5-{[(3-methyl-5-{[6-(trifluoromethyl)pyrazin-2-yl]amino}-1,2-thiazol-4-yl)carbonyl]amino}phenoxy)piperidine-1-carboxylate] | > 20 µM | 0.075 | 
11 | Cc1nsc(Nc2cnc3ccccc3n2)c1C(=O)Nc1ccc(N2CCOCC2)nc1 [Example 169, 3-methyl-N-[6-(morpholin-4-yl)pyridin-3-yl]-5-(quinoxalin-2-ylamino)-1,2-thiazole-4-carboxamide] | > 20 µM | 14 | 
12 | Cc1nsc(Nc2ccc(C#N)cn2)c1C(=O)Nc1ccc(N[C@@H](C)C(=O)OC(C)(C)C)nc1 [Example 170, tert-butyl N-{5-[({5-[(5-cyanopyridin-2-yl)amino]-3-methyl-1,2-thiazol-4-yl}carbonyl)amino]pyridin-2-yl}alaninate] | > 20 µM | 1.1 | 
13 | Cc1nsc(Nc2ccc(C#N)cn2)c1C(=O)Nc1ccc(NC2CCCN(C(=O)OC(C)(C)C)C2)nc1 (stereo not shown) [Example 171, tert-butyt 3-({5-[({5-[(5-cyanopyridin-2-yl)amino]-3-methyl-1,2-thiazol-4-yl}carbonyl)amino]pyridin-2-yl}amino)piperidine-1-carboxylate] | > 20 µM | 4 | 
14 | Cc1nsc(Nc2cnc3ccccc3n2)c1C(=O)Nc1ccc(NC2CC2)nc1 [Example 172, N-[6-(cyclopropylamino)pyridin-3-yl]-3-methyl-5-(quinoxalin-2-ylamino)-1,2-thiazole-4-carboxamide] | > 20 µM and 18 µM | 2.3 | 
15 | COc1ccc(NC(=O)c2c(C)nsc2Nc2ccc(C#N)cn2)c(N2CCOCC2)n1 [Example 173, 5-[(5-cyanopyridin-2-yl)amino]-N-[6-methoxy-2-(morpholin-4-yl)pyridin-3-yl]-3-methyl-1,2-thiazole-4-carboxamide] | > 20 µM | 6.7 | 
16 | Cc1nsc(Nc2cnc(C(F)(F)F)cn2)c1C(=O)Nc1ccc(F)c(OCC2CCCN(CC(F)F)C2)c1 (stereo not shown) [Example 335, N-(3-{[1-(2,2-difluoroethyl)piperidin-3-yl]methoxy}-4-fluorophenyl)-3-methyl-5-{[5-(trifluoromethyl)pyrazin-2-yl]amino}-1,2-thiazole-4-carboxamide] | ≥ 20 µM |  | 0.098
17 | Cc1nsc(Nc2cnc(C(F)(F)F)cn2)c1C(=O)Nc1ccc(O[C@@H]2CCN(CC(F)(F)F)C2)nc1 [Example 421, 3-Methyl-N-(6-{[(3R)-1-(2,2,2-trifluoroethyl)pyrrolidin-3-yl]oxy}pyridin-3-yl)-5-{[5-(trifluoromethyl)pyrazin-2-yl]amino}-1,2-thiazole-4-carboxamide] | ≥ 20 µM |  | 0.33
18 | Cc1nsc(Nc2cnc(C(F)(F)F)cn2)c1C(=O)Nc1ccc(OC[C@@H]2CCCN(CCC(F)(F)F)C2)nc1 [Example 422, 3-Methyl-5-{[5-(trifluoromethyl)pyrazin-2-yl]amino}-N-(6-{[(3R)-1-(3,3,3-trifluoropropyl)piperidin-3-yl]methoxy}pyridin-3-yl)-1,2-thiazole-4-carboxamide] | ≥ 20 µM |  | 0.088
19 | Cc1nsc(Nc2cnc(C(F)(F)F)cn2)c1C(=O)Nc1ccc(O[C@@H]2CCN(CCC(F)(F)F)C2)nc1 [Example 423, 3-Methyl-5-{[5-(trifluoromethyl)pyrazin-2-yl]amino}-N-(6-{[(3R)-1-(3,3,3-trifluoropropyl)pyrrolidin-3-yl]oxy}pyridin-3-yl)-1,2-thiazole-4-carboxamide] | ≥ 20 µM |  | 0.14
20 | Cc1nsc(Nc2cnc(C(F)(F)F)cn2)c1C(=O)Nc1ccc(OC2CCN(CCC(F)(F)F)CC2)nc1 [Example 426, 3-Methyl-5-{[5-(trifluoromethyl)pyrazin-2-yl]amino}-N-(6-{[1-(3,3,3-trifluoro-propyl)piperidin-4-yl]oxy}pyridin-3-yl)-1,2-thiazole-4-carboxamide, Salt with Hydrochloric Acid] | ≥ 20 µM |  | 0.032
